Assay results reported in patent US12133855B2, “Lipid-like nanocomplexes and uses thereof” (Trustees of Tufts College, priority 2018, dated 2024).

Tests used:
[1] = Hydrodynamic size and polydispersity of lipidoid nanoparticles by DLS; type: physicochemical; conditions: blank LNPs
Description: (§1) All chemicals used for lipidoids synthesis were purchased from Sigma-Aldrich without further purification unless otherwise noted. (−30)GFP-Cre recombinase, S. pyogenes Cas9 (spCas9) and sgRNA were generated following the protocols reported in Wang at al., Proc. Natl. Acad. Sci. USA, 2016, 113, 2868-2873 (“Wang”). HeLa-DsRed and GFP-HEK cells were cultured in Dulbecco's modified eagle's medium (DMEM, Sigma-Aldrich) with 10% fetal bovine serum (FBS, Sigma-Aldrich) and 1% penicillin-streptomycin (Gibco). All ^1H NMR spectra were recorded on a Bruker AVIII 500 MHz NMR spectrometer operated in the Fourier transform mode. Hydrodynamic size and polydispersity index of nanoparticles were measured by Zeta-PALS particle size analyzer (Brookhaven Instruments). The apparent pKa values of lipidoids were determined using 2-(p-toluidinynaphthalene-6-sulphonic acid) (TNS, Sigma-Aldrich) as fluorescent probe following the protocols reported in Heyes et al., J. Controlled Release, 2005, 107, 276-287. TEM measurements were performed on a FEI Technai Transmission Electron Microscope. Fluorescence images of tissue slices were obtained using BZ-X Analyzer fluorescence microscope.
Lipidoids nanoparticles (LNPs) were fabricated in sodium acetate buffer (25 mM, pH 5.2) by following the simple ultrasonication and vortex procedures described above. Hydrodynamic sizes and polydispersity index (PDI) of LNPs were measured by dynamic laser scattering (DLS) analysis.
Lipidoids were fabricated into nanoparticles for all delivery applications.
In this context, two strategies were tested, i.e., synthesizing new OCholB-tailed lipidoids with single tail rather than full substitution, and adding helper lipids (phospholipids) into fully substituted OCholB LNPs. […] The delivery efficacies of the single-tailed LNPs were first tested using GFP mRNA against HeLa cells (lipidoid/mRNA=10/1; [mRNA]=0.86 μg mL^−1; 24 h of exposure). […] We then tried to add helper lipids into the original two-tailed OCholB lipidoid nanoparticles formulations. As a proof-of-concept, DOPE was mixed with OCholB lipidoids (lipidoid/DOPE=1/1, weight ratio) and nanoparticles were fabricated (noted as 75-OCholB-F, 76-OCholB-F, and 77-OCholB-F) and loaded with Cas9 mRNA and sgRNA (mRNA/sgRNA=1/1, weight ratio).

[2] = TEM size of lipidoid nanoparticles; type: physicochemical; conditions: TEM images of LNPs
Description: as §1
(§2) The morphologies of LNPs were further studied by the transmission electron microscopy (TEM). […] Subsequently, the stability of LNPs thus prepared was examined by DLS and fluorescence measurements.
The morphologies of OCholB fully substituted LNPs were then examined by transmission electron microscopy (TEM). […] In contrast, the vesicular structures were not well-formed for 87-OCholB and 90-OCholB compared to their counterparts, and amorphous aggregates were observed instead.

HeLa-DsRed cells [3] = test: Intracellular delivery of (−30)GFP-Cre/LNP (GFP-positive cells); type: cell-based; conditions: 25 nM (−30)GFP-Cre, lipidoid 3.3 mg/L; for green fluorescence emission (fluorescence microscopy): 6 h incubation; for GFP-positive cells: flow cytometry, 6 h
Description: (§3) The final (−30)GFP-Cre protein concentration is 25 nM, and lipidoid concentration is 3.3 mg/L. For the gene recombination functional study, HeLa-DsRed cells were treated with same conditions and the red fluorescence emission from DsRed was analyzed by flow cytometry 24 h after delivery.
A Cre recombinase protein fused to a negatively supercharged GFP variant ((−30)GFP-Cre) was used as a model cargo protein. The (−30)GFP-Cre protein was able to complex with cationic LNPs through electrostatic attraction and other types supramolecular interactions. The cellular uptake of LNPs could be determined by direct analysis of intracellular GFP fluorescent intensity as reported in Wang. HeLa-DsRed cells were used in this study, which expressed red fluorescent DsRed upon Cre-mediated recombination to facilitate the functional study of delivered proteins in the following study.
The (−30)GFP-Cre protein loaded LNPs (GFP-Cre/LNPs) were prepared at first by simply mixing precalculated amount of aqueous solution of LNPs and protein at ambient conditions. For the intracellular delivery, after incubation with GFP-Cre/LNPs nanoparticles for 6 h, the GFP-positive cells were observed using fluorescence microscopy, harvested and counted by flow cytometry. […] The intracellular (−30)GFP-Cre protein delivery efficiencies were further quantified by flow cytometry.

GFP-HEK cells [4] = test: Cas9:sgRNA RNP delivery, GFP gene knockout; type: cell-based; conditions: 48 h; 25 nM Cas9:sgRNA RNP; lipidoid 3.3 mg/L
Description: For CRISPR/Cas9 gene knockout study, GFP-HEK cells were seeded in 48-well plate with a density of 2×10^4 cell/well. After 24 h of incubation, Cas9:sgRNA/LNP nanoparticles were added to the cells and incubated for 4 h, followed by media changed. After 48 h of incubation, the green emission from GFP was analyzed by flow cytometry.
For the intracellular delivery, GFP-HEK cells were harvested after treating with Cas9:sgRNA/LNPs nanocomplexes for 48 h. GFP gene knockout efficacy was further evaluated by flow cytometry.

GFP-HEK cells [5] = tested on: GFP-HEK cells
Description: Cell viability was measured by the standard MTT assay. HeLa-DsRed or GFP-HEK cells were seeded into 96-well plate with a density of 5×10^3 cell/well. (−30)GFP-Cre/LNP or Cas9:sgRNA/LNP nanoparticles were added after 24 h of incubation. The final concentration of protein is 25 nM and LNP is 3.3 mg/L. After incubating for 24 h or 48 h, the MTT reagent (5 mg/mL, in 30 μL PBS buffer) was added and the cells were incubated for another 4 h at 37° C. The cell culture media were then carefully removed and 200 μL of DMSO were added. The DMSO solution was transferred into another 96-well plate and the absorbance at 570 nm was recorded by microplate reader. All experiments were performed in quadruplicate.
In vitro cytotoxicity of Cas9:sgRNA/LNPs against GFP-HEK cells was also evaluated by the MTT assay.

HeLa-DsRed cells [6] = test: Cre-mediated gene recombination (DsRed expression) after (−30)GFP-Cre/LNP delivery; type: cell-based; conditions: 24 h; 25 nM (−30)GFP-Cre; lipidoid 3.3 mg/L
Description: as §3
The top 12 of LNPs identified through intracellular delivery screening experiments were further tested for gene recombination using HeLa-DsRed model cells. The expression of DsRed from Cre protein mediated gene recombination was analyzed after 24 h of co-incubation with free (−30)GFP-Cre protein and protein loaded LNPs. […] Most of the test LNPs, on the other hand, efficiently delivered (−30)GFP-Cre protein and induced gene recombination, with 14-46% of the cells positive for DsRed.

Ai14 mice = test: In vivo (−30)GFP-Cre delivery with formulated O17 LNPs, intravenous, tdTomato expression; set-up: species or system mouse; conditions: day 0 and day 5, 100 μg protein each, organs at day 20
Description: Formulated LNPs (lipidoid/Cholesterol/DOPE/DSPE-PEG2k=16/4/1/4, weight ratio) were prepared for protein loading and mice injection. Ai14 mice were housed in a temperature and humidity controlled facility with a 12 h light/dark cycle. Two mice in each group were injected with (−30)GFP-Cre/LNPs formulations on day 0 and 5, with 100 μg protein for each injection. Organs including heart, liver, spleen, lung and kidney from all groups were collected 20 days after injections. The tissues were fixed overnight in 4% paraformaldehyde (PFA) before being sectioning into 10 μm slices. The slices were collected and stained with DAPI for fluorescence imaging.
Upon Cre mediated gene recombination, the STOP cassette was removed, resulting in tdTomato expression. Considering the different performances of cargo loaded LNPs in vitro and in vivo, three LNPs with same amine heads and different tails (76-O17O, 76-O17S and 76-O17Se) were tested in this study. Formulated LNPs (lipidoid/cholesterol/DOPE/DSPE-PEG2k=16/4/1/4, weight ratio) were prepared. Mice were injected (intravenous injection) with (−30)GFP-Cre loaded the formulated LNPs (GFP-Cre/76-O17O, GFP-Cre/76-O17S, and GFP-Cre/76-O17Se) at day 0 and day 5 (100 μg of protein for each injection). […] Fluorescence images with lower magnification and larger field of view were obtained. […]

[7] = Storage stability of LNPs (time-dependent DLS, DiO/DiI FRET); type: physicochemical; conditions: DiO and DiI loaded LNPs, five days of storage
Description: as §2
The cell (HeLa and HeLa-DsRed cell lines) internalization studies were conducted using small molecular hydrophobic (nile red) and hydrophilic (calcein) fluorescent dyes and macromolecular fluorescent recombinant protein ((−30)GFP-Cre) loaded OCholB LNPs. The stabilities of cargo-loaded LNPs were examined at first using time-dependent DLS and fluorescence measurements.

HeLa cells = test: Internalization of calcein loaded nanoparticles; type: cell-based; conditions: 8 h of exposure
Description: The internalization kinetics and efficiencies of OCholB LNPs were then studied using NR loaded LNPs and HeLa cells. […] Next, all of the NR delivery efficiencies of eight OCholB LNPs were determined after 8 h of exposure. […] Representative fluorescent images of NR/LNPs (NR/75-OCholB, NR/76-OCholB and NR/77-OCholB) treated HeLa cells are shown in FIG. 12D, from which it is easily observed that NR was delivered into the cells and mainly distributed in cytoplasm, by OCholB LNPs. Next, the internalization of negatively charged hydrophilic fluorescent dye, calcein, was studied. […] Next, the use of OCholB LNPs for the intracellular delivery of macromolecular cargo was explored, using fluorescent recombinant (−30)GFP-Cre protein and HeLa-DsRed cells as the model system. […] Delivery efficiency was tested at a range of (−30)GFP-Cre protein concentrations (25, 50 and 100 nM), with a consistent lipid/protein ratio (i.e., delivery with the final lipid concentration of 1.7, 3.3, and 6.6 μg mL^−1 respectively). 33.2%, 43.8% and 74% of GFP positive (GFP^+) cells were recorded for (−30)GFP-Cre/Lpf2k treated cells with the concentration of (−30)GFP-Cre 25 nM, 50 nM and 100 nM, respectively. […]

## CCCCCCCCCCCCCCOCCOC(=O)CCN(CCC(=O)OCCOCCCCCCCCCCCCCC)CCN1CCCC1 [Lipidoid 76-O17O]
[1]
  averaged hydrodynamic diameter (<Dh>): 170.1 nm
  polydispersity index (PDI, μ2/I^2): 0.37
[2]
  size measured by TEM: 145 nm
HeLa-DsRed cells [3]
  green fluorescence emission (fluorescence microscopy): bright green fluorescence emission

## CCCCCCCCCCCCCC[Se]CCOC(=O)CCN(CCCN(CC)CC)CCC(=O)OCC[Se]CCCCCCCCCCCCCC [Lipidoid 81-O17Se]
GFP-HEK cells [4]
  GFP knockout (GFP-negative cells): 54.7%
GFP-HEK cells [5]
  cell viability: 97.7%

## CCCCCCCCCCCCCCSCCOC(=O)CCN(CCC(=O)OCCSCCCCCCCCCCCCCC)CCN1CCCC1 [Lipidoid 76-O17S]
[1]
  averaged hydrodynamic diameter (<Dh>): 114.3 nm
  polydispersity index (PDI, μ2/I^2): 0.24
[2]
  size measured by TEM: 94 nm
HeLa-DsRed cells [3]
  green fluorescence emission (fluorescence microscopy): bright green fluorescence emission
HeLa-DsRed cells [6]
  cells positive for DsRed (protein transfection efficiency): 40.8%
Ai14 mice
  tdTomato signal in sections of lung: strong tdTomato signals

## CCCCCCCCCCCCCC[Se]CCOC(=O)CCN(CCCN(C)C)CCC(=O)OCC[Se]CCCCCCCCCCCCCC [Lipidoid 80-O17Se]
HeLa-DsRed cells [3]
  GFP-positive cells: 39%
GFP-HEK cells [4]
  GFP knockout (GFP-negative cells): 57.7%
GFP-HEK cells [5]
  cell viability: 68.2%

## CCCCCCCCCCCCCC[Se]CCOC(=O)CCN(CCC(=O)OCC[Se]CCCCCCCCCCCCCC)CCN1CCCC1 [Lipidoid 76-O17Se]
[1]
  averaged hydrodynamic diameter (<Dh>): 129.4 nm
  polydispersity index (PDI, μ2/I^2): 0.18
[2]
  size measured by TEM: 133 nm
[7]
  FRET ratio (I575/I575+I505) variations: negligible
HeLa-DsRed cells [3]
  green fluorescence emission (fluorescence microscopy): bright green fluorescence emission
HeLa-DsRed cells [6]
  cells positive for DsRed (protein transfection efficiency): 36.1%
Ai14 mice
  tdTomato signal in sections of lung: strong tdTomato signals
GFP-HEK cells [4]
  GFP knockout (GFP-negative cells): 50.2%
GFP-HEK cells [5]
  cell viability: 76.3%

## O=C(O)CN(CC(=O)O)Cc1cc2c(cc1O)Oc1cc(O)c(CN(CC(=O)O)CC(=O)O)cc1C21OC(=O)c2ccccc21 [free calcein, calcein, reference compound]
HeLa cells
  mean fluorescent intensity vs free calcein-treated cells: cannot enter into the cells efficiently

## CCCCCCCCCCCCCC[Se]CCOC(=O)CCN(CCCN(C)C)CCCN(CCC(=O)OCC[Se]CCCCCCCCCCCCCC)CCC(=O)OCC[Se]CCCCCCCCCCCCCC [Lipidoid 400-O17Se]
HeLa-DsRed cells [3]
  GFP-positive cells: 42%
GFP-HEK cells [4]
  GFP knockout (GFP-negative cells): 57.4%
GFP-HEK cells [5]
  cell viability: 66.7%
